Data from patent US8536222B2, “Addition compounds of guanidinoacetic acid” (AlzChem AG, priority 2005, dated 2013).

Experiments:
[1] = system: fattened chicken; experiment: feed for fattened chicken, 42 day fattening period; type: in vivo; conditions: 0.2% by weight in air-dried feed
Protocol: • 2.1 A formulation consisting of 5000 mg guanidinoacetic acid malate and 5000 mg inulin was introduced into a typical formulation of feed pellets as a feed supplement for horses. • 2.2 A formulation consisting of 7000 mg guanidinoacetic acid lactate, 750 mg carnitine tartrate, 100 mg sucrose stearate, 160 mg talcum and 1090 mg fructose was introduced into the basic bulk for dog biscuits. • 2.3 The following formulation was introduced homogenously as a master batch into a commercially canned cat food mixture: 3000 mg guanidinoacetic acid citrate, 3000 mg creatine, 40 mg magnesium stearate, 25 mg carboxymethyl-cellulose and […] lactose. • 2.4 Feed for fattened chicken
In addition the consumption of feed decreased by about 6% compared to previous feeding methods.

[2] = 1 g in water at 15° C.; cited from earlier work
[3] = solubility in water; type: physicochemical; conditions: water at 20° C.
[4] = system: creatine content in muscles; conditions: rats, diets containing about 0.36 g/kg; cited from earlier work

Row | SMILES | decrease of consumption of feed compared to previous feeding methods [1] | increase of end weight compared to previous feeding methods without guanidinoacetic acid [1] | meat quality [1] | nature of the increase in weight [1] | solubility in water (ml water needed for 1 g) [2] | dissolves in water [3] | increase of creatine content in muscles compared to the comparison group [4]
1 | N=C(N)NCC(=O)O.O=C(O)CCCCC1CCSS1 (stereo not shown) [guanidinoacetic acid lipoate] | about 6% | 5% | improved quality | solely by a meat increase | – | – | –
2 | N=C(N)NCC(=O)O [guanidinoacetic acid] | – | – | – | – | 278 mL | very poorly | 39%
